Patent US6800633B2, “Pyrrolo[2,3d]pyrimidine compositions and their use” (OSI Pharmaceuticals, Inc., priority 1998, dated 2004)
pKi: −log10 of the molar value. Like-named read-outs stand apart in the source and are kept apart here.

What was measured:
[1] = biological target: T1, human A1 adenosine receptor (Homo sapiens, UniProt P30542); conditions: A1 adenosine receptor agonist; cited from earlier work
T1 sequence (P30542 1-326): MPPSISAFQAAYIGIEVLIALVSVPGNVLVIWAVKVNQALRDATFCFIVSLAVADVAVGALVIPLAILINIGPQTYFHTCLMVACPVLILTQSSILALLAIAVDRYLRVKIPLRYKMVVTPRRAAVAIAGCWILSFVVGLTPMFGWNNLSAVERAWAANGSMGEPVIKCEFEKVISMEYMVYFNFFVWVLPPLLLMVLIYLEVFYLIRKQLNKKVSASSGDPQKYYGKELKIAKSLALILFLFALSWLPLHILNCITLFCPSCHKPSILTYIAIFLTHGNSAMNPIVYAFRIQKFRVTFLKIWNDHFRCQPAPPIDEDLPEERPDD

[2] = biological target: T2, human A2b receptor subtype (Homo sapiens, UniProt P29275); test: Adenosine 2b receptor subtype competition radioligand binding, [3H]DPCPX, HEK293 membranes; conditions: for pKi: Table 13, read-out: Binding Ki (nm) A2b
T2 construct: expressed in transfected cells; host or cells: HEK293
T2 sequence (P29275 1-332): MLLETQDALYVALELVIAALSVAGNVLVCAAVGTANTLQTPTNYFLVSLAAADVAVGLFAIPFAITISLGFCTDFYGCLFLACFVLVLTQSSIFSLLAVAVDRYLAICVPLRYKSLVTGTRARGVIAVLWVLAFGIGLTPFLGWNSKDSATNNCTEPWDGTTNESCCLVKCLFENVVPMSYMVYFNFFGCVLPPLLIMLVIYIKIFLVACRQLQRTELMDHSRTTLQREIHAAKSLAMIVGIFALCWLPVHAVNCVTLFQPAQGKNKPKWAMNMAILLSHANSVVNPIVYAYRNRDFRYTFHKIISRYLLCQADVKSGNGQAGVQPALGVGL

[3] = biological target: T3, human A3 receptor subtype (Homo sapiens, UniProt P0DMS8); test: Adenosine 3 receptor competition radioligand binding, [125I]AB-MECA, HEK293 membranes
T3 sequence (P0DMS8 1-318): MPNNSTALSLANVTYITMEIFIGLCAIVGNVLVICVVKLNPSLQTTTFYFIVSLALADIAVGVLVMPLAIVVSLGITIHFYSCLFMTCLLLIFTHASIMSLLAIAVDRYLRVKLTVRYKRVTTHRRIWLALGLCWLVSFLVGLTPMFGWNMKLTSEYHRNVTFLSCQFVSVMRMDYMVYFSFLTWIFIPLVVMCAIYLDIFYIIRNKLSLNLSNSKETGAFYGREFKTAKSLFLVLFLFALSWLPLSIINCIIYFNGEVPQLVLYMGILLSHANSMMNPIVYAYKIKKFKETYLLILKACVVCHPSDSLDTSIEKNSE

[4] = biological target: T4, human A1 receptor subtype (Homo sapiens, UniProt P30542)
T4 sequence (P30542 1-326): T1 sequence (P30542 1-326)

[5] = biological target: human A2a receptor subtype (Homo sapiens, UniProt P29274); test: Adenosine 2a receptor subtype competition radioligand binding, [3H]CGS-21680, HEK293 membranes
[6] = biological target: T4, human A1 receptor subtype; test: biochemical
[7] = Water solubility (footnote to Table 13); format: physicochemical
[8] = Table 13, given as %, footnote 8: % activity @ 10 μM

Sequence of human A2a receptor subtype (P29274 whole entry): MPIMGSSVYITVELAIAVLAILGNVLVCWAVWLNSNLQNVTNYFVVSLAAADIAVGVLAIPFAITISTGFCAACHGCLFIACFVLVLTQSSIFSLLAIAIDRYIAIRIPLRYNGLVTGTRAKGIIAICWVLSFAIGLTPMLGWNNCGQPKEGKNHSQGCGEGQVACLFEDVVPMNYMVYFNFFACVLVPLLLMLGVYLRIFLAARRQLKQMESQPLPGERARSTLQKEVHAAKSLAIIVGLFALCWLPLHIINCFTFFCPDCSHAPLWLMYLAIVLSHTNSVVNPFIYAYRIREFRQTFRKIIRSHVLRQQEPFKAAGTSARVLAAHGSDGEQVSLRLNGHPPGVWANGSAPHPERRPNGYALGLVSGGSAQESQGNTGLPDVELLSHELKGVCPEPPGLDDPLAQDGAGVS

CC(Cc1ccccc1)Nc1ncnc2c1ncn2[C@@H]1O[C@H](CO)[C@@H](O)[C@H]1O (single isomer, unassigned; (-)) [R-PIA, (−)-N6-(2-phenylisopropyl)-adenosine]
reported affinity [1]: approximately 50 nM

Cc1[nH]c2nc(-c3ccccc3)nc(NC3CCC(O)CC3)c2c1C (stereo not shown) [CDS-046142]
pKi [2]: 6.86 | pKi [3]: 7.67

Cc1[nH]c2nc(-c3ccccc3)nc(NC3CCC(NS(C)(=O)=O)CC3)c2c1C (stereo not shown) [CDS-056176]
pKi ([4]; read-out: A1 Binding Ki, membranes from yeast cells transformed with human A1 receptor, [3H]DPCPX 1.0 nM): < 5.00

Cc1[nH]c2nc(-c3cccs3)nc(NC3CCC(O)CC3)c2c1C (stereo not drawn) [CDS-090890, 4-(4-trans-hydroxycyclohexyl)amino-5,6-dimethyl-2-(2-thienyl)-7H-pyrrolo[2,3d]pyrimidin-4-amine]
A2b binding, % activity [2, 8]: 30% | pKi [5]: 6.14 | pKi [3]: 8.00

CNC(=O)NCCCNc1nc(-c2ccccc2)nc2[nH]c(C)c(C)c12 [CDS-121180]
A2a binding, % activity [5, 8]: 76%

Cc1[nH]c2nc(-c3ccccc3)nc(NCCCNC(=O)CCN)c2c1C [CDS-121181]
pKi [2]: 5.47 | pKi [6]: 4.12

Cc1[nH]c2nc(-c3ccccc3)nc(NCCNC(=O)C3(N)CC3)c2c1C [CDS-123264]
water solubility [7]: ^3water soluble; | A1 binding, % activity [4, 8]: 30%

CC(=O)NCCNc1nc(-c2ccccc2)nc2[nH]c(COc3ccccc3)cc12 [CDS-129851, 4-(2-acetylaminoethyl)amino-6-phenoxymethyl-2-phenyl-7H-pyrrolo[2,3d]pyrimidine]
pKi [6]: 7.38 | pKi [3]: 7.84

O[C@H]1CC[C@H](Nc2nc(-c3ccncc3)nc3[nH]ccc23)CC1 [CDS-131921, 4-(trans-4-hydroxycyclohexyl)amino-2-(4-pyridyl)-7H-pyrrolo[2,3d]pyrimidine]
A3 binding, % activity @ 10 μM ([3]; Table 13, 10 μM): 54%^8

CC(=O)NCCNc1nc(-c2ccccc2)nc2[nH]c(Cn3ccccc3=O)cc12 [CDS-143988, 4-(2-acetylaminoethyl)amino-6-(N-pyridin-2-one)methyl-2-phenyl-7H-pyrrolo[2,3d]pyrimidine]
Ki ([2]; Table 14, read-out: Binding Data Ki (nM) A2B): 47 nM
